“And” between values parts separate entries of the source, which are not always exact repeats. Equal entries are not always repeated. Where two headings read alike, the source gives them in different places.
Legend:
[1] = cited from earlier work
[2] = Solvent compatibility with viscosity-increasing polymer, viscosity of solution: VEE; assay type: physicochemical; parameters: unit not given here; details: polymer added at 5% by weight, up to 3 days agitation
[3] = relative volatility compared to butyl acetate; cited from earlier work
[4] = Solvent compatibility with viscosity-increasing polymer, viscosity of solution: CAB; assay type: physicochemical; parameters: unit not given here; details: polymer added at 5% by weight, up to 3 days agitation
[5] = test system: rat; details: cited from earlier work
[6] = Solvent compatibility with viscosity-increasing polymer, viscosity of solution: MMA; assay type: physicochemical; parameters: unit not given here; details: polymer added at 5% by weight, up to 3 days agitation
[7] = Solvent miscibility and compatibility with octyl cyanoacrylate; assay type: physicochemical; parameters: key: V = slightly viscous; VV = viscous; VVV = very viscous; Lyr = layers; Pl = pale; Lt = light; Y = yellow; RX = reacts; Gry = grey; Brn = brown; Blk = black; details: 3 ml solvent + 3 ml OCA
Experimental: (§1) Next, the solvents were tested for miscibility and compatibility with cyanoacrylate esters. Briefly, beginning with 3 ml samples each of butyl cyanoacrylate (BCA), octyl cyanoacrylate (OCA) and ethoxyethyl cyanoacrylate (EECA), 3 ml of each solvent was added drop-wise to each cyanoacrylate sample and agitated to aid mixing. Observations of the samples were taken immediately and then at regular intervals over 7 days. […] The remaining 10 solvents were ranked according to their compatibility with the cyanoacrylate esters based primarily on their compatibility with BCA over 7 days, secondarily on their compatibility with OCA, and finally on their miscibility with EECA.

[8] = Solvent miscibility and compatibility with ethoxyethyl cyanoacrylate; assay type: physicochemical; details: 3 ml solvent + 3 ml EECA
Experimental: as §1

[9] = Solvent compatibility with viscosity-increasing polymer, viscosity of solution: IB; assay type: physicochemical; details: for Viscosity of solution with IB: polymer added at 5% by weight, up to 3 days agitation
[10] = Colorant solubility in solvent; details: for PPM dye soluble: 10 g solvent added to 0.4 g D&C Violet #2, shaken 30 minutes, stood 30 minutes; for Dye solubility, suitability: D&C Violet #2
Experimental: For the remaining solvents, colorant solubility was assessed in terms of the solubility of D&C Violet #2. Briefly, 10 g of each of the solvents listed in Table 5 was added to 0.4 g of dye in 12 ml test tubes. The samples were shaken for 30 minutes then allowed to stand for 30 minutes. After standing, 5 ml of the top layer was removed and weighed into pre-weighed aluminum weigh boats where the solvent was allowed to evaporate before re-weighing.

[11] = Solvent miscibility and compatibility with butyl cyanoacrylate; assay type: physicochemical; parameters: key: V = slightly viscous; VV = viscous; VVV = very viscous; Lyr = layers; Pl = pale; Lt = light; Y = yellow; RX = reacts; Gry = grey; Brn = brown; Blk = black; details: 3 ml solvent + 3 ml BCA
Experimental: as §1

[12] = Solvent miscibility and compatibility with cyanoacrylate esters (overall); assay type: physicochemical; details: observations over 7 days
Experimental: as §1

[13] = Solvent compatibility with viscosity-increasing polymer, viscosity of solution: Cap; assay type: physicochemical; details: polymer added at 5% by weight, up to 3 days agitation

## CCOCC [Diethyl ether]
[1]; at 20 ° C.
  VP (vapor pressure): 440@20 mmHg
[2]
  Viscosity of solution with VEE: 1.2
[3]
  VL (volatility): 37.5

## CCC(C)=O [Butanone]
[4]
  Viscosity of solution with CAB: 1.8
[1]; at 60 ° C.
  VP (vapor pressure): 400@60 mmHg
[5]; oral dose administered to rat
  TOX (toxicity, LD50): 2737 mg/kg
[6]
  Viscosity of solution with MMA: 4.5 and 4.2
[7]
  OCA compatibility, 1 Day: V
  OCA compatibility, 2 Day: VV
  OCA compatibility, 7 Day: VV
[3]
  VL (volatility): 2.7

## Xylene
[1]; at 20 ° C.
  VP (vapor pressure): 9@20 mmHg
[5]; oral dose administered to rat
  TOX (toxicity, LD50): 3910 mg/kg
[3]
  VL (volatility): 0.7

## CC(=O)CC(C)C [Methyl isobutyl ketone]
[1]; at 20 ° C.
  VP (vapor pressure): 16@20 mmHg
[5]; oral dose administered to rat
  TOX (toxicity, LD50): 1600 mg/kg
[3]
  VL (volatility): 1.6

## C[N+](=O)[O-] [Nitromethane]
[1]; at 20 ° C.
  VP (vapor pressure): 28@20 mmHg
[3]
  VL (volatility): 1.39

## CC(=O)OC(C)(C)C [t-Butyl acetate]
[5]; oral dose administered to rat
  TOX (toxicity, LD50): 13400 mg/kg
[3]
  VL (volatility): 1.5

## C1CCCCC1 [Cyclohexane]
[8]
  EECA compatibility, 1 Day: 2Lyr
  EECA compatibility, 2 Day: 2Lyr
  EECA compatibility, 7 Day: 2Lyr
  EECA compatibility, Time 0: 2Lyr
[1]; at 20 ° C.
  VP (vapor pressure): 95@20 mmHg
[9]; 5% by weight, up to 3 days
  Dissolution of polyisobutylene: partially dissolve
[9]
  Viscosity of solution with IB: 59
[5]; rat, in vivo, po
  TOX (toxicity, LD50): 12705 mg/kg
[10]
  PPM dye soluble: 600 PPM
  Dye solubility, suitability: insufficient dye solubility
[7]
  OCA compatibility, 1 Day: V
  OCA compatibility, 2 Day: VV
  OCA compatibility, 7 Day: VV
[2]
  Viscosity of solution with VEE: 4.5
[3]
  VL (volatility): 2.6

## CC(=O)C(C)C [3-Methyl 2-butanone]
[8]
  EECA compatibility, 1 Day: LtBrn
  EECA compatibility, 2 Day: LtGry
  EECA compatibility, 7 Day: LtGry
[1]; at 20 ° C.
  VP (vapor pressure): 42@20 mmHg
[11]; 1 Day
  BCA compatibility, 1 Day: Gry
[11]; 2 Day
  BCA compatibility, 2 Day: Blk
[11]; 7 Day
  BCA compatibility, 7 Day: Blk
[5]; oral dose administered to rat
  TOX (toxicity, LD50): 3078 mg/kg
[12]
  Reaction with the cyanoacrylate esters: apparent reactions
[7]
  OCA compatibility, 1 Day: VV
  OCA compatibility, 2 Day: VV
  OCA compatibility, 7 Day: VV
[3]
  VL (volatility): 2.9

## CCCCCC [Hexane]
[8]
  EECA compatibility, 1 Day: 2Lyr
  EECA compatibility, 2 Day: 2Lyr
  EECA compatibility, 7 Day: 2Lyr
  EECA compatibility, Time 0: 2Lyr
[1]; at 20 ° C.
  VP (vapor pressure): 132@20 mmHg
[9]
  Viscosity of solution with IB: 7.7
[5]; rat, in vivo, po
  TOX (toxicity, LD50): 28710 mg/kg
[10]
  PPM dye soluble: 500 PPM
  Dye solubility, suitability: insufficient dye solubility
[2]
  Viscosity of solution with VEE: 0.9

## Cc1ccccc1 [Toluene]
[13]
  Viscosity of solution with Cap: 3.7
[1]; at 20 ° C.
  VP (vapor pressure): 22@20 mmHg
[9]
  Viscosity of solution with IB: 20
[2]
  Viscosity of solution with VEE: 3.1
[3]
  VL (volatility): 2.24

## CCOC(C)=O [Ethyl acetate]
[4]
  Viscosity of solution with CAB: 2.3
[5]; oral dose administered to rat
  TOX (toxicity, LD50): 5620 mg/kg
[6]
  Viscosity of solution with MMA: 4.7
[10]
  PPM dye soluble: 3400 PPM
[7]
  OCA compatibility, 2 Day: V?
  OCA compatibility, 7 Day: VV
[3]
  VL (volatility): 6

## COCC(C)O (stereo not drawn) [Methoxy propanol]
[5]; oral dose administered to rat
  TOX (toxicity, LD50): 8532 mg/kg
[3]
  VL (volatility): 0.3

## CC(=O)CC(C)(C)O [Diacetone alcohol]
[1]; at 20 ° C.
  VP (vapor pressure): 0.95@20^ mmHg
[5]; oral dose administered to rat
  TOX (toxicity, LD50): 4000 mg/kg
[3]
  VL (volatility): 0.14

## CC(Cl)CCl (stereo not drawn) [Dichloropropane]
[1]; at 20 ° C.
  VP (vapor pressure): 40@20 mmHg
[5]; oral dose administered to rat
  TOX (toxicity, LD50): 1947 mg/kg
[3]
  VL (volatility): −1

## CC(C)C(=O)C(C)C [Diisopropyl ketone]
[1]; at 37 ° C.
  VP (vapor pressure): 13.3@37^ mmHg
[5]; rat, in vivo, po
  TOX (toxicity, LD50): 3536 mg/kg
[3]
  VL (volatility): 0.17

## Methyl cyclohexanone
[1]; at 20 ° C.
  VP (vapor pressure): 3.3@20 mmHg
[5]; oral dose administered to rat
  TOX (toxicity, LD50): 2140 mg/kg
[3]
  VL (volatility): 0.29

## CCCOCC(C)O (stereo not drawn) [PGPE (Arcosolv)]
[1]; at 20 ° C.
  VP (vapor pressure): 1.7@20 mmHg
[3]
  VL (volatility): 0.21
